Source: article PMC6659418 (Bioorganic & medicinal chemistry letters, 2017)

Assays:
[1] = predicted hepatic clearance from microsomal intrinsic clearance, rat; format: in vitro ADME; conditions: based on microsomal CLint
[2] = predicted hepatic clearance from microsomal intrinsic clearance, human; format: in vitro ADME; conditions: based on microsomal CLint
[3] = metabolite identification in rat hepatic microsomes; format: in vitro ADME
[4] = metabolite identification in human hepatic microsomes; format: in vitro ADME
plasma protein binding = format: in vitro ADME
hM4 = target: T1, hM4 (Homo sapiens, UniProt P08173); assay: calcium mobilization assay, hM4/Gqi5 CHO cells, ACh EC80; format: cell-based; conditions: for hM4 % ACh Min ±SEM: presence of ACh EC80
T1 sequence (P08173 1-479): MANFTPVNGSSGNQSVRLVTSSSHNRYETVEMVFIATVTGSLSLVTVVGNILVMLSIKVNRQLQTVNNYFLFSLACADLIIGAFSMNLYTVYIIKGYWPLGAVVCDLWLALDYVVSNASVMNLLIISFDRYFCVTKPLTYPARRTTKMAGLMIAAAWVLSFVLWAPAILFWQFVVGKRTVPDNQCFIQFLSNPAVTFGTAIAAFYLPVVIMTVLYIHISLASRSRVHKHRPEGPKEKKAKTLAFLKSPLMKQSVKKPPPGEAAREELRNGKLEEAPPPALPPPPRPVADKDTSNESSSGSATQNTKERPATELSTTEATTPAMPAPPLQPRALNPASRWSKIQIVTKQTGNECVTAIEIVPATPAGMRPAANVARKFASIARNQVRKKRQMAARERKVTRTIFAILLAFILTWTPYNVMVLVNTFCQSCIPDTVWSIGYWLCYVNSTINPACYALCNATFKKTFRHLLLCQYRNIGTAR

hM5 = target: T2, hM5 (Homo sapiens, UniProt P08912); assay: calcium mobilization assay, hM5 CHO cells, ACh EC80; format: cell-based
T2 sequence (P08912 1-532): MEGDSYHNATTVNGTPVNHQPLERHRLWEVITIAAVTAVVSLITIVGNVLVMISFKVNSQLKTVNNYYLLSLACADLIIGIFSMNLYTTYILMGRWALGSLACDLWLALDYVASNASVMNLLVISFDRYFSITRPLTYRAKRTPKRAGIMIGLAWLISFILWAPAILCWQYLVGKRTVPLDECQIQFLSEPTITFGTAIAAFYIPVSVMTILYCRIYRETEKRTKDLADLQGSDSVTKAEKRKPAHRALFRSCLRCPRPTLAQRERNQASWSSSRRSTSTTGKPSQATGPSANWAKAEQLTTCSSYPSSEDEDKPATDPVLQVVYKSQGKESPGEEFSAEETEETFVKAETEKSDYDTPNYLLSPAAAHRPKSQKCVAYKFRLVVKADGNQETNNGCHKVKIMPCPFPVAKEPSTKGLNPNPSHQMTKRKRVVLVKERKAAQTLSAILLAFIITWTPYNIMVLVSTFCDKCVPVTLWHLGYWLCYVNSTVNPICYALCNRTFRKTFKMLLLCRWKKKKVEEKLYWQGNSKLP

rM4 = target: T3, rM4 (Rattus norvegicus, UniProt P08485); assay: activity at rat mAChRs, rM4; format: cell-based
T3 sequence (P08485 1-478): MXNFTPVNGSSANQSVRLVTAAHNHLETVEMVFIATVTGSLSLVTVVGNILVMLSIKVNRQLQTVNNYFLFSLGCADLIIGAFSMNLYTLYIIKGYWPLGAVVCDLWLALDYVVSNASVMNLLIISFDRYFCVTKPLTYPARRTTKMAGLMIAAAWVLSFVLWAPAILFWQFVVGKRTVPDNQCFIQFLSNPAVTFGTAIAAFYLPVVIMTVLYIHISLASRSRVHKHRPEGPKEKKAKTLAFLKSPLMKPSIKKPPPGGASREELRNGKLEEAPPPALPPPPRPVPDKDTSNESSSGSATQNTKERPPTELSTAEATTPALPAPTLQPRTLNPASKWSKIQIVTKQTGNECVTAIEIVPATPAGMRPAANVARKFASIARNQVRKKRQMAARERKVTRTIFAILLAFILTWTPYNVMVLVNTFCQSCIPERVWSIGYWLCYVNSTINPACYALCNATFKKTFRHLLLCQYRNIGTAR

hM1 = target: T4, hM1 (Homo sapiens, UniProt P11229); assay: calcium mobilization assay, hM1 CHO cells, ACh EC80; format: cell-based
T4 sequence (P11229 1-460): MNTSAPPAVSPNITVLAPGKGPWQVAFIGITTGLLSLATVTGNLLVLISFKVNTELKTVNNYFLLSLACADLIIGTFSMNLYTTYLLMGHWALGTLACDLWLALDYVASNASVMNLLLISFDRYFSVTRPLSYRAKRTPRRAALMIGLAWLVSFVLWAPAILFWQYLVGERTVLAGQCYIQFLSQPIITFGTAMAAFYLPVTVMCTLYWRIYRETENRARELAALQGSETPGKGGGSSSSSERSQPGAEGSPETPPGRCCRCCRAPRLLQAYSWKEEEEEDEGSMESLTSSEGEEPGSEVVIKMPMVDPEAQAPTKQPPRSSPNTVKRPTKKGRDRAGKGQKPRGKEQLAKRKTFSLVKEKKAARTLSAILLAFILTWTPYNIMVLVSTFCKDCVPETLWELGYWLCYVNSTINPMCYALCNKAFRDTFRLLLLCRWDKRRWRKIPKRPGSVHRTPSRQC

hM2 = target: T5, hM2 (Homo sapiens, UniProt P08172); assay: calcium mobilization assay, hM2/Gqi5 CHO cells, ACh EC80; format: cell-based
T5 sequence (P08172 1-466): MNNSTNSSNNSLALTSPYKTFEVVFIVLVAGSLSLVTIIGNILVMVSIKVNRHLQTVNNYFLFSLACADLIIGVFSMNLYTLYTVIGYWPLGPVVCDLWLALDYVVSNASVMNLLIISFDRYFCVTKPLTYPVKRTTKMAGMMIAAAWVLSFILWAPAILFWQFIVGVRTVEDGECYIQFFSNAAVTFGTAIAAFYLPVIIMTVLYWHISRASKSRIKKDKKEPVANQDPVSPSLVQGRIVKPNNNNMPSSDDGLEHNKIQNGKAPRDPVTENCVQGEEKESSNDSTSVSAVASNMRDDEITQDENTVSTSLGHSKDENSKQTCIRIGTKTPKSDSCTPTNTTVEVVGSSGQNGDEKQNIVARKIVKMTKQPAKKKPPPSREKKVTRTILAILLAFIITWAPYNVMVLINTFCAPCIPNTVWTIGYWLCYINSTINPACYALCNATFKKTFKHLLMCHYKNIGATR

hM3 = hM3 (Homo sapiens, UniProt P20309); assay: calcium mobilization assay, hM3 CHO cells, ACh EC80; format: cell-based
Sequence of hM3 (P20309 whole entry): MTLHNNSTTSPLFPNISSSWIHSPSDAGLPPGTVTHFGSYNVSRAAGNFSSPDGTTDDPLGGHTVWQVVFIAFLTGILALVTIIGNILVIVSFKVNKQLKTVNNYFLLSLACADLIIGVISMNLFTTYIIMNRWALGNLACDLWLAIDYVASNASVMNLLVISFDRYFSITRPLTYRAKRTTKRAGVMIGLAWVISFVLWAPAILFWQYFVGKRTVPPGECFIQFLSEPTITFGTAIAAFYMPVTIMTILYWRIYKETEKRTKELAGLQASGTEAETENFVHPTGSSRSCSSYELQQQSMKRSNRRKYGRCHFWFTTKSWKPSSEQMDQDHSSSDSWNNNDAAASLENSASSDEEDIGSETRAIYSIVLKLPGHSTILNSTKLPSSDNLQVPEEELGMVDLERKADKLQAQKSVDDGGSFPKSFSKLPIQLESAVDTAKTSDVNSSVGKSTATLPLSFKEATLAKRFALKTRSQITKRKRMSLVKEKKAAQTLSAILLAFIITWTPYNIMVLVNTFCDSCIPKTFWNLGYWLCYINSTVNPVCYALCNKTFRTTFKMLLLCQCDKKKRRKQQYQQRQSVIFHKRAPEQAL

C[C@H]1CCCCN1c1ccc(N2CCN(S(=O)(=O)c3ccccc3Cl)CC2)nn1 [Compound 6a]
predicted hepatic clearance (CLhep), rat [1]: > 60 mL/min/kg
predicted hepatic clearance (CLhep), human [2]: > 20 mL/min/kg
parent remaining, rat microsomes [3]: very little parent remained
major peak (UV and extracted ion chromatograms), rat microsomes ([3]; oxidative metabolism of the piperidine moiety): metabolite F
NADPH-independent metabolism, rat microsomes ([3]; presence and absence of NADPH): no NADPH-independent metabolism
number of NADPH-dependent metabolites formed, human microsomes [4]: 8
parent remaining, human microsomes [4]: parent remained the major species
NADPH-independent metabolism, human microsomes ([4]; presence and absence of NADPH): no NADPH-independent metabolism
plasma protein binding (plasma protein binding): high plasma protein binding
M4-preferring functional selectivity over other mAChRs (hM4; hM4 versus hM1, hM2, hM3, hM5): 2.7- to 16 fold

C[C@H]1CCCCN1c1ccc(N2CCN(S(=O)(=O)c3ccccc3)CC2)nn1 [Compound 9c]
hM4 activity (hM4): weak

COc1ccccc1S(=O)(=O)N1CCN(c2ccc(N3CCCC[C@@H]3C)nn2)CC1 [Compound 9d]
hM4 activity (hM4): weak

C[C@H]1CCCCN1c1ccc(N2CCN(S(=O)(=O)c3ccccc3C(F)(F)F)CC2)nn1 [Compound 9e]
hM4 activity (hM4): essentially equipotent to 6a

C[C@H]1CCCCN1c1ccc(N2CCN(S(=O)(=O)c3ccc4c(c3)OCO4)CC2)nn1 [Compound 9i]
fold more potent at hM4 than 3,4-dimethoxy analog 9j (hM4; 9i versus 9j): 10 fold

C[C@H]1COCCN1c1ccc(N2CCN(S(=O)(=O)c3ccccc3Cl)CC2)nn1 [Compound 14a]
hM4 % ACh Min ±SEM (hM4): 56 % ACh Min

C[C@H]1COCCN1c1ccc(N2CCN(S(=O)(=O)c3ccc4c(c3)OCO4)CC2)nn1 [Compound 14b]
hM4 % ACh Min ±SEM (hM4): 63 % ACh Min

Cc1noc(C)c1S(=O)(=O)N1CCN(c2ccc(N3CCOC[C@@H]3C)nn2)CC1 [Compound 14c]
hM4 % ACh Min ±SEM (hM4): 66 % ACh Min

O=S(=O)(c1ccccc1Cl)N1CCN(c2ccc(N3CCCCC3)nn2)CC1 [Compound 14g]
fold loss in hM4 inhibitory activity relative to 6a (hM4): 5- to 6 fold

Cc1noc(C)c1S(=O)(=O)N1CCN(c2ccc(N3CCCC(C)(C)C3)nn2)CC1 [Compound 14n, 4-[4-[6-(3,3-dimethyl-1-piperidyl)pyridazin-3-yl]piperazin-1-yl]sulfonyl-3,5-dimethyl-isoxazole]
mode of antagonism at human M5 (hM5): weak, partial antagonism
predicted hepatic clearance (CLhep), rat [1]: 66.6 mL/min/kg
predicted hepatic clearance (CLhep), human [2]: 20 mL/min/kg
rM4 % ACh Min (rM4): 32±1 % ACh Min
IC50 (rM4; rM4 pIC50): 0.372 µM
mode of antagonism at human M1 (hM1): potent full antagonist
mode of antagonism at human M2 (hM2): potent full antagonist
mode of antagonism at human M3 (hM3): weak, partial antagonism

O=C1CCCCN1c1ccc(N2CCN(S(=O)(=O)c3ccccc3Cl)CC2)nn1 [Compound 14o]
hM4 % ACh Min ±SEM (hM4): 51 % ACh Min
